The values below come from paper PMC4067742, “Direct Observations of Amyloid β Self-Assembly in Live Cells Provide Insights into Differences in the Kinetics of Aβ(1–40) and Aβ(1–42) Aggregation” (Chemistry & Biology, 2014).

“And” between values parts separate entries of the source, which are not always exact repeats. Equal values may be shown once.

This assay concerns SH-SY5Y cells. The experiment in a line: Live cell FLIM of intracellular aggregation. As to conditions: 500 nM peptide in culture medium; for lag phase of intracellular aggregation: 0–48 hr, live cell FLIM (Figure 4D). It counts as cell-based, human. The text has this: Having established that the fluorescence lifetime of HF488 acts as a reporter of amyloid formation of Aβ(1–40) and Aβ(1–42), we set out to investigate how the aggregation state of each of the two peptide isoforms is affected by its cellular uptake and accumulation in acidic organelles in SH-SY5Y cells. Using FLIM, we observed that there are no significant differences (p = 0.95, Table S1) in the fluorescence lifetimes of extracellular and internalized ^HF488Aβ(1–40) during the first 6 hr after application of 500 nM peptide to the culture medium (Figures 4A and 4D), indicating the presence of similar ^HF488Aβ(1–40) species within the cells as those applied to the extracellular environment. […] We then examined the cells treated with the same concentration of ^HF488Aβ(1–40) for 24 and 48 hr (Figures 4C and 4D), washing them prior to imaging to remove any extracellular fluorescence. […] The difference compared with the extracellular starting value, however, is statistically significant first after 48 hr (p = 0.0032, Table S1). […]
All FLIM experiments were carried out using HF488-labeled Aβ peptides, and images were recorded by time-correlated single photon counting (TCSPC) using a confocal microscopy platform built on an Olympus Fluoview FV300 confocal scan unit. […] The excitation beam was reflected onto the sample with a 20/80 broad bandwidth coated beam splitter so that 20% of the excitation light passed on to the sample and 80% of the fluorescence signal was reflected toward the confocal pinhole. The fluorescence light was passed through a 515-nm Semrock long-pass filter (Laser 2000) and passed onto a fast photomultiplier tube (PMC-100, Becker & Hickl). Lifetimes were recorded using TCSPC circuitry (SPC-830, Becker & Hickl). […] The instrument response was measured using reflected light from either a coverslip or a coated mirror. […]

Turning to “^HF488Aβ(1–40): Synthetic 40-residue amyloid β peptide labeled at the N terminus with Hilyte Fluor 488, purchased from Anaspec”, the “lag phase of intracellular aggregation” value is on record as “appears to exhibit a lag phase”. Where the note is “endpoint (48h, p = 0.22 Table S2), cells washed once, live cell FLIM”, the “endpoint value of intracellular fluorescence lifetime” value is 3.35 ± 0.2 ns and 3.31 ± 0.2 ns. Regarding “^HF488Aβ(1–42): Synthetic 42-residue amyloid β peptide labeled at the N terminus with Hilyte Fluor 488, purchased from Anaspec”, the “lag phase of intracellular aggregation” value is on record as “shows no such effect”.
